Measurements taken from PubChem BioAssay (NCI).
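Tested at 5 concentrations; 48 h exposure; 96-well plates; endpoints linearly interpolated, else capped at highest concentration. Here, GI50 denotes the concentration required for 50% inhibition of growth. TGI: total growth inhibition.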

Assays:
Assay in all cases: NCI anticancer screen, dose series, 48 h
[1] = system: 786-0 renal
[2] = system: A498 renal
[3] = system: A549 NSCLC
[4] = system: ACHN renal
[5] = system: BT-549 breast
[6] = system: CAKI-1 renal
[7] = system: CCRF-CEM leukemia
[8] = system: COLO 205 colon
[9] = system: DU-145 prostate
[10] = system: EKVX NSCLC
[11] = system: HCC-2998 colon
[12] = system: HCT-116 colon
[13] = system: HCT-15 colon
[14] = system: HL-60(TB) leukemia
[15] = system: HOP-62 NSCLC
[16] = system: HOP-92 NSCLC
[17] = system: HS 578T breast
[18] = system: HT29 colon
[19] = system: IGROV1 ovarian
[20] = system: K-562 leukemia
[21] = system: KM12 colon
[22] = system: LOX IMVI melanoma
[23] = system: M14 melanoma
[24] = system: MALME-3M melanoma
[25] = system: MCF7 breast
[26] = system: MDA-MB-231 breast
[27] = system: MDA-MB-435
[28] = system: MOLT-4 leukemia
[29] = system: NCI-H226 lung
[30] = system: NCI-H23 lung
[31] = system: NCI-H460 lung
[32] = system: NCI-H522 lung
[33] = system: NCI/ADR-RES ovarian
[34] = system: OVCAR-3 ovarian
[35] = system: OVCAR-4 ovarian
[36] = system: OVCAR-5 ovarian
[37] = system: OVCAR-8 ovarian
[38] = system: PC-3 prostate
[39] = system: RPMI-8226 leukemia
[40] = system: RXF 393 renal
[41] = system: SF-268 CNS
[42] = system: SF-295 CNS
[43] = system: SF-539 CNS
[44] = system: SK-MEL-2 melanoma
[45] = system: SK-MEL-28 melanoma
[46] = system: SK-MEL-5 melanoma
[47] = system: SK-OV-3 ovarian
[48] = system: SN12C renal
[49] = system: SNB-19 CNS
[50] = system: SNB-75 CNS
[51] = system: SR leukemia
[52] = system: SW-620 colon
[53] = system: T-47D breast
[54] = system: TK-10 renal
[55] = system: U251 CNS
[56] = system: UACC-257 melanoma
[57] = system: UACC-62 melanoma
[58] = system: UO-31 renal

Work on `O=C(c1cccs1)c1c(C(F)(F)F)n([O-])c2ccc(Cl)cc2[n+]1=O` yielded a GI50 [1] of 36.2 nM, a TGI [1] of 69 nM and a GI50 [2] of 10800 nM. For the same molecule, the TGI [2] was 18500 nM, the GI50 [3] was 168 nM and the TGI [3] was 730 nM. It also gave a GI50 [4] of 16.7 nM, a TGI [4] of 44.2 nM and a GI50 [5] of 289 nM. The TGI [5] was 655 nM, the GI50 [6] was 128 nM and the TGI [6] was 671 nM. For the same molecule, the GI50 [7] was 93.3 nM, the GI50 [8] was 569 nM and the TGI [8] was 10200 nM. The GI50 [9] was 311 nM, the TGI [9] was 547 nM and the GI50 [10] was 185 nM. The TGI [10] was 523 nM, the GI50 [11] was 735 nM and the TGI [11] was 1430 nM. For the same molecule, the GI50 [12] was 46.5 nM, the TGI [12] was 723 nM and the GI50 [13] was 109 nM. For the same molecule, the TGI [13] was 359 nM, the GI50 [14] was 152 nM and the TGI [14] was 1510 nM. For the same molecule, the GI50 [15] was 64.9 nM, the TGI [15] was 146 nM and the GI50 [16] was 866 nM. For the same molecule, the TGI [16] was 5680 nM, the GI50 [17] was 11400 nM and the TGI [17] was > 34000 nM. The GI50 [18] was 1290 nM, the TGI [18] was > 50000 nM and the GI50 [19] was 56.3 nM. It also gave a TGI [19] of 1650 nM, a GI50 [20] of 115 nM and a TGI [20] of 2620 nM. It also gave a GI50 [21] of 111 nM, a TGI [21] of 302 nM and a GI50 [22] of 65.3 nM. The TGI [22] was 131 nM, the GI50 [23] was 322 nM and the TGI [23] was 1090 nM. For the same molecule, the GI50 [24] was 6360 nM, the TGI [24] was 13900 nM and the GI50 [25] was 94.2 nM. It also gave a TGI [25] of 2480 nM, a GI50 [26] of 124 nM and a TGI [26] of 431 nM. For the same molecule, the GI50 [27] was 289 nM, the TGI [27] was 2020 nM and the GI50 [28] was 28.9 nM. The TGI [28] was 340 nM, the GI50 [29] was 398 nM and the TGI [29] was 2360 nM. The GI50 [30] was 454 nM, the TGI [30] was 2260 nM and the GI50 [31] was 359 nM. For the same molecule, the TGI [31] was > 24900 nM, the GI50 [32] was 406 nM and the TGI [32] was 6070 nM. For the same molecule, the GI50 [33] was 1750 nM, the TGI [33] was 6240 nM and the GI50 [34] was 461 nM. The TGI [34] was 2850 nM, the GI50 [35] was 2610 nM and the TGI [35] was > 50000 nM. It also gave a GI50 [36] of 2020 nM, a TGI [36] of 9680 nM and a GI50 [37] of 1260 nM. For the same molecule, the TGI [37] was > 20900 nM, the GI50 [38] was 97.2 nM and the TGI [38] was 339 nM. The GI50 [39] was 5 nM, the TGI [39] was 16.3 nM and the GI50 [40] was 2090 nM. The TGI [40] was 11700 nM, the GI50 [41] was 434 nM and the TGI [41] was 1360 nM. The GI50 [42] was 149 nM, the TGI [42] was 703 nM and the GI50 [43] was 282 nM. For the same molecule, the TGI [43] was 568 nM, the GI50 [44] was 912 nM and the TGI [44] was > 20800 nM. For the same molecule, the GI50 [45] was 9460 nM, the TGI [45] was > 50000 nM and the GI50 [46] was 541 nM. The TGI [46] was 2540 nM, the GI50 [47] was 7810 nM and the TGI [47] was 20100 nM. For the same molecule, the GI50 [48] was 175 nM, the TGI [48] was 572 nM and the GI50 [49] was 1210 nM. For the same molecule, the TGI [49] was > 14800 nM, the GI50 [50] was 2760 nM and the TGI [50] was > 50000 nM. It also gave a GI50 [51] of 154 nM, a TGI [51] of 621 nM and a GI50 [52] of 248 nM. It also gave a TGI [52] of 4680 nM, a GI50 [53] of 505 nM and a GI50 [54] of 106 nM. The TGI [54] was 333 nM, the GI50 [55] was 130 nM and the TGI [55] was 586 nM. It also gave a GI50 [56] of 614 nM, a TGI [56] of 3360 nM and a GI50 [57] of 212 nM. The TGI [57] was 562 nM, the GI50 [58] was 185 nM and the TGI [58] was 745 nM.
Molecule `CCN1CCN(Cc2ccc(NC(=O)c3nc4ccc5[nH]ncc5c4c4c3CCCC4)cc2C(F)(F)F)CC1` has a GI50 [1] of 886 nM, a TGI [1] of 1650 nM and a GI50 [2] of 6890 nM. It also gave a TGI [2] of 14400 nM, a GI50 [3] of 1320 nM and a TGI [3] of 3800 nM. The GI50 [4] was 861 nM, the TGI [4] was 1560 nM and the GI50 [5] was 6330 nM. The TGI [5] was 13000 nM, the GI50 [6] was 976 nM and the TGI [6] was 2420 nM. The GI50 [7] was 1150 nM, the TGI [7] was 3260 nM and the GI50 [8] was 861 nM. The TGI [8] was 1680 nM, the GI50 [9] was 1250 nM and the TGI [9] was 2980 nM. The GI50 [10] was 2090 nM, the TGI [10] was 8810 nM and the GI50 [11] was 816 nM. The TGI [11] was 1590 nM, the GI50 [12] was 870 nM and the TGI [12] was 1700 nM. For the same molecule, the GI50 [13] was 950 nM, the TGI [13] was 1960 nM and the GI50 [14] was 983 nM. It also gave a TGI [14] of 1990 nM, a GI50 [15] of 815 nM and a TGI [15] of 1650 nM. The GI50 [16] was 1610 nM, the TGI [16] was 7650 nM and the GI50 [17] was 969 nM. It also gave a TGI [17] of 2130 nM, a GI50 [18] of 923 nM and a TGI [18] of 1910 nM. For the same molecule, the GI50 [19] was 892 nM, the TGI [19] was 1720 nM and the GI50 [20] was 827 nM. It also gave a TGI [20] of 2120 nM, a GI50 [21] of 988 nM and a TGI [21] of 1940 nM. The GI50 [22] was 836 nM, the TGI [22] was 1550 nM and the GI50 [23] was 885 nM. For the same molecule, the TGI [23] was 1800 nM, the GI50 [24] was 827 nM and the TGI [24] was 1590 nM. The GI50 [25] was 884 nM, the TGI [25] was 1840 nM and the GI50 [26] was 879 nM. It also gave a TGI [26] of 1660 nM, a GI50 [27] of 918 nM and a TGI [27] of 1670 nM. The GI50 [28] was 1010 nM, the TGI [28] was 2280 nM and the GI50 [29] was 2980 nM. It also gave a TGI [29] of 13600 nM, a GI50 [30] of 1760 nM and a TGI [30] of 7210 nM. The GI50 [31] was 935 nM, the TGI [31] was 1780 nM and the GI50 [32] was 882 nM. The TGI [32] was 1850 nM, the GI50 [33] was 1080 nM and the TGI [33] was 2820 nM. The GI50 [34] was 997 nM, the TGI [34] was 1920 nM and the GI50 [35] was 1070 nM. It also gave a TGI [35] of 2630 nM, a GI50 [36] of 1480 nM and a TGI [36] of 5460 nM. It also gave a GI50 [37] of 1010 nM, a TGI [37] of 2050 nM and a GI50 [38] of 1300 nM. It also gave a TGI [38] of 4200 nM, a GI50 [39] of 1070 nM and a TGI [39] of 2610 nM. The GI50 [40] was 738 nM, the TGI [40] was 1430 nM and the GI50 [41] was 2300 nM. The TGI [41] was 9200 nM, the GI50 [42] was 888 nM and the TGI [42] was 1800 nM. It also gave a GI50 [43] of 870 nM, a TGI [43] of 1600 nM and a GI50 [44] of 850 nM. For the same molecule, the TGI [44] was 1900 nM, the GI50 [45] was 899 nM and the TGI [45] was 1650 nM. The GI50 [46] was 903 nM, the TGI [46] was 1630 nM and the GI50 [47] was 7250 nM. It also gave a TGI [47] of 14200 nM, a GI50 [48] of 865 nM and a TGI [48] of 1630 nM. For the same molecule, the GI50 [49] was 931 nM, the TGI [49] was 2010 nM and the GI50 [50] was 1060 nM. For the same molecule, the TGI [50] was 7170 nM, the GI50 [51] was 1190 nM and the TGI [51] was 2650 nM. For the same molecule, the GI50 [52] was 969 nM, the TGI [52] was 1890 nM and the GI50 [53] was 854 nM. It also gave a TGI [53] of 1920 nM, a GI50 [54] of 1830 nM and a TGI [54] of 6790 nM. For the same molecule, the GI50 [55] was 883 nM, the TGI [55] was 1630 nM and the GI50 [56] was 938 nM. The TGI [56] was 1840 nM, the GI50 [57] was 922 nM and the TGI [57] was 1880 nM. It also gave a GI50 [58] of 729 nM and a TGI [58] of 1400 nM.
